Experimental data reported in EP4818168A1, “FUSED RING COMPOUND, PHARMACEUTICAL COMPOSITION THEREOF AND USE THEREOF” (priority 2023, dated 2025).
Like-named read-outs stand apart in the source and are kept apart here.

Experiments:
AURKA = target: T1, AURKA (Homo sapiens, UniProt O14965); assay type: cell-based
T1 construct: endogenous in cells; host or cells: Jurkat cells
T1 sequence (O14965 1-403): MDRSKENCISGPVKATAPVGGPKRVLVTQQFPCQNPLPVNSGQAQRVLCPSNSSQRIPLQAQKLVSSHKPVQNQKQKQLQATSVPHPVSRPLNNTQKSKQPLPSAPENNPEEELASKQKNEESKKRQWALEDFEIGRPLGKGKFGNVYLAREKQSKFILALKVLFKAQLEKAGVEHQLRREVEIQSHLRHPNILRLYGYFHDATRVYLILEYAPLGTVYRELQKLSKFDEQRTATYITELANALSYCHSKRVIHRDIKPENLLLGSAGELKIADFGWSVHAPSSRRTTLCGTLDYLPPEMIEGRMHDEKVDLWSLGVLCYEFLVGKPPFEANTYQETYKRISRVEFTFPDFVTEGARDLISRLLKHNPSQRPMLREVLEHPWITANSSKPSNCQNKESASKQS
How it was run: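 AURKA degradation read by western blot: band signal, fluorescent or chemiluminescent, curve-fitted to derive DC50. Cells were Jurkat, plated at 1×10^6 cells/500 µL with compound, then lysed and blotted onto nitrocellulose, primary antibody overnight at 4°C.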

HCC1806 cells = test: CTG assay of compound inhibition on cell viability (HCC1806 cells); assay type: cell-based; conditions: Homo sapiens, HCC1806, 144 h, read-out: IC50 in HCC1806 Cells
Protocol: CellTiter-Glo (CTG) is a rapid cell viability test method based on ATP detection. […] Adenosine triphosphate (ATP) participates in various enzymatic reactions in organisms and is an indicator of living cell metabolism. Its content directly reflects the number of living cells and cell status. During the experiment, equal volume of CTG reagent is added to the cultured cells to measure the luminescence value. The chemiluminescent signal value is proportional to the amount of ATP, thus reflecting the number of viable cells. Therefore, cell viability can be obtained by detecting the ATP content. Compounds that affect cell viability will inhibit cell viability in a concentration-dependent manner, allowing a curve to be fitted to obtain the IC50 value.
The experimental procedure is as follows: • 11. Place the cell suspension in a 15 mL centrifuge tube, centrifuge at 1000 rpm for 5 min at room temperature, discard the supernatant, and collect the cell pellet. • 12. Resuspend the cell pellet with preheated complete cell culture medium (RPMI1640+10%FBS+1%PS), and use a Countess® automated cell counter to detect cell viability and density. The cell viability must be above 90%. • 13. […] Transfer the compound solution to a 96-well plate seeded with cells (final concentration of DMSO 0.1%), and place in a cell incubator at 37°C, 5% CO2 for 6 days. • 15. […] Protect from light during the whole process. Perform optical signal readings using a SpectraMax i3x reader. • 16. Data analysis: Remaining activity (%) = 100% * (1 - ((LumDMSO - Lummedium) - Lumsample) / (LumDMSO - LumPBS/medium)). Use GraphPad Prism 9.0 software to draw an S-shaped dose-survival rate curve and calculate the IC50 value using a nonlinear regression model.

[1] = 100 nM compound, Jurkat cells, 24 h, Table 1
[2] = 1 µM compound, Jurkat cells, 24 h, Table 1

Structure (SMILES) | Percentage of AURKA Degradation Induced by 100 nM Compound in Jurkat Cells (AURKA; [1]) | Percentage of AURKA Degradation Induced by 1 µM Compound in Jurkat Cells (AURKA; [2]) | IC50 (HCC1806 cells) [nM] | Percentage of AURKA Degradation Induced by 100 nM Compound in Jurkat Cells (AURKA) | Percentage of AURKA Degradation Induced by 1 µM Compound in Jurkat Cells (AURKA)
COc1cc(Nc2ncc3c(n2)-c2ccc(Cl)cc2C(c2c(F)cccc2OC)=NC3)ccc1C(=O)NC1CC2(C1)CN(c1ccc(N3CCC(=O)NC3=O)cc1)C2 [Compound A58] | ++ (30% < Degradation ≤ 70%) | ++ (30% < Degradation ≤ 70%) | < 1000 |  | 
O=C1CCN(c2ccc(N3CC4(CC(NC(=O)c5ccc(Nc6ncc7c(n6)-c6ccc(Cl)cc6C(c6c(F)cccc6F)=NC7)cc5)C4)C3)cc2)C(=O)N1 [Compound A59] | ++ (30% < Degradation ≤ 70%) | +++ (Degradation > 70%) | < 1000 |  | 
O=C1CCN(c2ccc(N3CC4(CCC(NC(=O)c5ccc(Nc6ncc7c(n6)-c6ccc(Cl)cc6C(c6c(F)cccc6F)=NC7)cc5)CC4)C3)nc2)C(=O)N1 [Compound A61] | +++ (Degradation > 70%) | +++ (Degradation > 70%) | < 1000 |  | 
COc1cccc(F)c1C1=NCc2cnc(Nc3ccc(C(=O)NC4CC5(C4)CN(c4cccc(N6CCC(=O)NC6=O)c4)C5)cc3)nc2-c2ccc(Cl)cc21 [Compound A63] | ++ (30% < Degradation ≤ 70%) | ++ (30% < Degradation ≤ 70%) | < 1000 |  | 
O=C1CCN(c2ccc(N3CCN(CCNC(=O)c4ccc(Nc5ncc6c(n5)-c5ccc(Cl)cc5C(c5c(F)cccc5F)=NC6)cc4)CC3=O)nc2)C(=O)N1 [Compound A64] |  |  | < 1000 | +++ (key: +: Degradation ≤ 30%; ++: 30% < Degradation ≤ 70%; +++: Degradation > 70%) | ++ (key: +: Degradation ≤ 30%; ++: 30% < Degradation ≤ 70%; +++: Degradation > 70%)
COc1cccc(F)c1C1=NCc2cnc(Nc3ccc(C(=O)NCCN4CCN(c5ccc(N6CCC(=O)NC6=O)cn5)C(=O)C4)cc3)nc2-c2ccc(Cl)cc21 [Compound A65] | +++ (Degradation > 70%) | ++ (30% < Degradation ≤ 70%) | < 1000 |  | 
O=C1CCN(c2ccc(N3CCN(CCNC(=O)c4ccc(Nc5ncc6c(n5)-c5ccc(Cl)cc5C(c5c(F)cccc5F)=NC6)cc4)CC34CC4)nc2)C(=O)N1 [Compound A66] | + (Degradation ≤ 30%) | + (Degradation ≤ 30%) | < 1000 |  | 
COc1cccc(F)c1C1=NCc2cnc(Nc3ccc(C(=O)NCCN4CCN(c5ccc(N6CCC(=O)NC6=O)cn5)C5(CC5)C4)cc3)nc2-c2ccc(Cl)cc21 [Compound A67] | + (Degradation ≤ 30%) | + (Degradation ≤ 30%) | < 1000 |  | 
COc1cccc(F)c1C1=NCc2cnc(Nc3ccc(C(=O)NCCN4CCN(c5ccc(N6CCC(=O)NC6=O)cn5)CC45CC5)cc3)nc2-c2ccc(Cl)cc21 [Compound A69] | +++ (Degradation > 70%) | +++ (Degradation > 70%) | < 1000 |  | 
O=C1CCN(c2ccc(N3CC(CN4CC(NC(=O)c5ccc(Nc6ncc7c(n6)-c6ccc(Cl)cc6C(c6c(F)cccc6F)=NC7)cc5)C4)C3)cc2)C(=O)N1 [Compound A70] | +++ (Degradation > 70%) | +++ (Degradation > 70%) | < 1000 |  | 
COc1cccc(F)c1C1=NCc2cnc(Nc3ccc(C(=O)NC4CN(CC5CN(c6ccc(N7CCC(=O)NC7=O)cc6)C5)C4)cc3)nc2-c2ccc(Cl)cc21 [Compound A71] | +++ (Degradation > 70%) | +++ (Degradation > 70%) | < 1000 |  | 
O=C1CCN(c2cccc(N3CC(CN4CC(NC(=O)c5ccc(Nc6ncc7c(n6)-c6ccc(Cl)cc6C(c6c(F)cccc6F)=NC7)cc5)C4)C3)c2)C(=O)N1 [Compound A72] | +++ (Degradation > 70%) | +++ (Degradation > 70%) | < 1000 |  | 
COc1cccc(F)c1C1=NCc2cnc(Nc3ccc(C(=O)NC4CN(CC5CN(c6cccc(N7CCC(=O)NC7=O)c6)C5)C4)cc3)nc2-c2ccc(Cl)cc21 [Compound A73] | +++ (Degradation > 70%) | +++ (Degradation > 70%) | < 1000 |  | 
O=C1CCN(c2cccc(N3CC(N4CC(NC(=O)c5ccc(Nc6ncc7c(n6)-c6ccc(Cl)cc6C(c6c(F)cccc6F)=NC7)cc5)C4)C3)c2)C(=O)N1 [Compound A74] | ++ (30% < Degradation ≤ 70%) | ++ (30% < Degradation ≤ 70%) | < 1000 |  | 
O=C1CCC(N2CCN(C3CN(CCNC(=O)c4ccc(Nc5ncc6c(n5)-c5ccc(Cl)cc5C(c5c(F)cccc5F)=NC6)cc4)C3)CC2=O)C(=O)N1 (stereo not drawn) [Compound A75] |  |  | 1000 to 10000 | ++ (key: +: Degradation ≤ 30%; ++: 30% < Degradation ≤ 70%; +++: Degradation > 70%) | ++ (key: +: Degradation ≤ 30%; ++: 30% < Degradation ≤ 70%; +++: Degradation > 70%)
COc1cccc(F)c1C1=NCc2cnc(Nc3ccc(C(=O)NC45CC(C#Cc6cccc(N7CCC(=O)NC7=O)c6)(C4)C5)cc3)nc2-c2ccc(Cl)cc21 [Compound A77] |  |  | 1000 to 10000 | ++ (key: +: Degradation ≤ 30%; ++: 30% < Degradation ≤ 70%; +++: Degradation > 70%) | ++ (key: +: Degradation ≤ 30%; ++: 30% < Degradation ≤ 70%; +++: Degradation > 70%)
COc1cc(Nc2ncc3c(n2)-c2ccc(Cl)cc2C(c2c(F)cccc2OC)=NC3)ccc1C(=O)NC1CC2(CCN(c3ncc(N4CCC(=O)NC4=O)s3)CC2)C1 [Compound A80] | ++ (30% < Degradation ≤ 70%) | +++ (Degradation > 70%) | < 1000 |  | 
O=C1CCN(c2cnc(N3CCC4(CC3)CC(NC(=O)c3ccc(Nc5ncc6c(n5)-c5ccc(Cl)cc5C(c5c(F)cccc5F)=NC6)cc3)C4)s2)C(=O)N1 [Compound A81] | +++ (Degradation > 70%) | +++ (Degradation > 70%) | < 1000 |  | 
COc1cc(Nc2ncc3c(n2)-c2ccc(Cl)cc2C(c2c(F)cccc2OC)=NC3)ccc1C(=O)O [alisertib, reference compound] | + (Degradation ≤ 30%) | + (Degradation ≤ 30%) | < 1000 |  | 
